Article PMC5889476 (Biochimie Open, 2015)
Numbering of substitutions follows the chain as printed. In names and notes the source's numbering stands.

B1: V72P, a rFKBP22 variant with a Val to Pro substitution at position 72 in the helix α3 (enzyme, Escherichia coli, UniProt P0A9L3 1-206, looked up)
chain: MTTPTFDTIEAQASYGIGLQVGQQLSESGLEGLLPEALVAGIADALEGKHPAVPVDVVHRALREIHERADAPRRQRFQAMAAEGVKYLEENAKKEGVNSTESGLQFRVINQGEGAIPARTDRVRVHYTGKLIDGTVFDSSVARGEPAEFPVNGVIPGWIEALTLMPVGSKWELTIPQELAYGERGAGASIPPFSTLVFEVELLEIL
B2: A82P, a rFKBP22 derivative harboring an Ala to Pro change at position 82 in the helix α3 (enzyme, Escherichia coli, UniProt P0A9L3 1-206, looked up)
chain: B1 chain with P72V, A82P

How the values were obtained:
[1] = molecular target: T1, rFKBP22 (E. coli FKBP22) (Escherichia coli, UniProt P0A9L3, I65P); experiment: tryptophan fluorescence quenching titration; type: binding
T1 sequence (P0A9L3 1-206 I65P): B1 chain with I65P, P72V

[2] = molecular target: T2, rFKBP22 (E. coli FKBP22) (Escherichia coli, UniProt P0A9L3, V72P); experiment: tryptophan fluorescence quenching titration; type: binding
T2 sequence (P0A9L3 1-206 V72P): B1 chain

[3] = molecular target: T3, rFKBP22 (E. coli FKBP22) (Escherichia coli, UniProt P0A9L3); experiment: tryptophan fluorescence quenching titration; type: binding
T3 sequence (P0A9L3 1-206): B1 chain with P72V

[4] = molecular target: T4, rFKBP22 (E. coli FKBP22) (Escherichia coli, UniProt P0A9L3, A82P); experiment: tryptophan fluorescence quenching titration; type: binding
T4 sequence (P0A9L3 1-206 A82P): B1 chain with P72V, A82P

[5] = molecular target: the molecule itself; experiment: cross-linking

Molecule	Kd [1] [µM]	Kd [2] [µM]	Kd [3] [µM]	Kd [4] [µM]	stoichiometry N [5]
CO[C@H]1C[C@@H]2CC[C@@H](C)[C@@](O)(O2)C(=O)C(=O)N2CCCC[C@H]2C(=O)O[C@H]([C@H](C)C[C@@H]2CC[C@@H](O)[C@H](OC)C2)CC(=O)[C@H](C)/C=C(\C)[C@@H](O)[C@@H](OC)C(=O)[C@H](C)C[C@H](C)/C=C/C=C/C=C/1C [rapamycin]	5.06 ± 0.38	5.51 ± 0.26	5.43 ± 0.57	5.41 ± 0.31	
B1					2
B2					2
